Source: US9650372B2, “Molecules having pesticidal utility, and intermediates, compositions, and processes, related thereto” (priority 2015, dated 2017)

How the values were obtained:
[1] = tested on: Cabbage Looper (Trichoplusia ni, TRIPNI); assay: Bioassay on Cabbage Looper (CL), 128-well diet tray assay; type: in vivo; conditions: 168 h, 50 μg/cm^2 on artificial diet, second instar larvae, 25° C., five to seven days, average of eight wells, read-out: CL % Control (or Mortality) rating
Method: (§1) Certain molecules disclosed in this document were tested against BAW and CL using procedures described in the following examples. In the reporting of the results, the “BAW & CL Rating Table” was used (See Table Section).
Bioassays on CL were conducted using a 128-well diet tray assay. One to five second instar CL larvae were placed in each well (3 mL) of the diet tray that had been previously filled with 1 mL of artificial diet to which 50 μg/cm^2 of the test molecule (dissolved in 50 μL of 90:10 acetone-water mixture) had been applied (to each of eight wells) and then allowed to dry. Trays were covered with a clear self-adhesive cover, vented to allow gas exchange, and held at 25° C., 14:10 light-dark for five to seven days. Percent mortality was recorded for the larvae in each well; activity in the eight wells was then averaged. The results are indicated in the table entitled “Table ABC: Biological Results” (See Table Section).

[2] = tested on: Beet Armyworm (Spodoptera exigua, LAPHEG); assay: Bioassay on Beet Armyworm (BAW), 128-well diet tray assay; type: in vivo; conditions: 168 h, 50 μg/cm^2 on artificial diet, second instar larvae, 25° C., five to seven days, average of eight wells, read-out: BAW % Control (or Mortality) rating
Method: as §1
Bioassays on BAW were conducted using a 128-well diet tray assay. One to five second instar BAW larvae were placed in each well (3 mL) of the diet tray that had been previously filled with 1 mL of artificial diet to which 50 μg/cm^2 of the test molecule (dissolved in 50 μL of 90:10 acetone-water mixture) had been applied (to each of eight wells) and then allowed to dry. Trays were covered with a clear self-adhesive cover, vented to allow gas exchange, and held at 25° C., 14:10 light-dark for five to seven days. Percent mortality was recorded for the larvae in each well; activity in the eight wells was then averaged. The results are indicated in the table entitled “Table ABC: Biological Results” (See Table Section).

Cc1ccc(C(C)C)c(N2C(=O)CS/C2=N\C(=O)Nc2ccc(-c3ncn(CCc4ccc(OC(F)(F)F)cc4)n3)cc2)c1 [Molecule F1, (Z)-1-(3-(2-isopropyl-5-methylphenyl)-4-oxothiazolidin-2-ylidene)-3-(4-(1-(4-(trifluoromethoxy)phenethyl)-1H-1,2,4-triazol-3-yl)phenyl)urea]
mortality at 50 µg/cm2 [1]: 50 to 100%
mortality at 50 µg/cm2 [2]: 50 to 100%

CC(C)c1ccccc1N1C(=O)CS/C1=N\C(=O)Nc1ccc(-c2ncn(CCCC(F)(F)C(F)(F)F)n2)cc1 [Molecule F2, (Z)-1-(3-(2-Isopropylphenyl)-4-oxothiazolidin-2-ylidene)-3-(4-(1-(4,4,5,5,5-pentafluoropentyl)-1H-1,2,4-triazol-3-yl)phenyl)urea]
mortality at 50 µg/cm2 [1]: 50 to 100%
mortality at 50 µg/cm2 [2]: 50 to 100%

CC(C)c1ccccc1N1C(=O)CS/C1=N\C(=O)Nc1ccc(-c2ncn(Cc3ccc(C(F)(F)F)cc3)n2)cc1 [Molecule F3, (Z)-1-(3-(2-Isopropylphenyl)-4-oxothiazolidin-2-ylidene)-3-(4-(1-(4-(trifluoromethyl)benzyl)-1H-1,2,4-triazol-3-yl)phenyl)urea]
mortality at 50 µg/cm2 [1]: 50 to 100%
mortality at 50 µg/cm2 [2]: 0 to 50%

CC(C)c1ccccc1N1C(=O)CS/C1=N\C(=O)Nc1ccc(-c2ncn(CCCCC(F)(F)F)n2)cc1 [Molecule F4, (Z)-1-(3-(2-Isopropylphenyl)-4-oxothiazolidin-2-ylidene)-3-(4-(1-(5,5,5-trifluoropentyl)-1H-1,2,4-triazol-3-yl)phenyl)urea]
mortality at 50 µg/cm2 [1]: 50 to 100%
mortality at 50 µg/cm2 [2]: 50 to 100%

CC(C)c1ccccc1N1C(=O)CS/C1=N\C(=O)Nc1ccc(-c2ncn(CCC(F)(F)C(F)(F)C(F)(F)F)n2)cc1 [Molecule F5, (Z)-1-(4-(1-(3,3,4,4,5,5,5-heptafluoropentyl)-1H-1,2,4-triazol-3-yl)phenyl)-3-(3-(2-isopropylphenyl)-4-oxothiazolidin-2-ylidene)urea]
mortality at 50 µg/cm2 [1]: 50 to 100%
mortality at 50 µg/cm2 [2]: 50 to 100%
